Data from PubChem BioAssay AID248 (DTP/NCI, 2004).
Several values for one entry are separate records, joined by “and”; a condition that tells them apart may be missing. Equal values may be shown once. Toxic doses and inconclusive results are not listed. Cut-off read from the data, not from the text of the source: active = T/C of 150% or more; inactive = T/C below 125%.

Tested on: L1210 leukemia ip in BDF1 mice, survival T/C
Assay: NCI In Vivo Anticancer Drug Screen. Data for tumor model L1210 Leukemia (intraperitoneal) in B6D2F1 (BDF1) mice
Details: endpoint: mean survival time, higher = longer survival
Procedure, shortened: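 Tumor cells were implanted, animals were treated, and survival was followed. The result divides the treated measurement by the vehicle-control measurement.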

[1] = dose: 50.0 mg/kg/injection, schedule: Q01DX001 (ip), vehicle: Klucel (hydroxypropylcellulose) (HPC)
[2] = dose: 100.0 mg/kg/injection, schedule: Q01DX001 (ip), vehicle: Klucel (hydroxypropylcellulose) (HPC)
[3] = dose: 100.0 mg/kg/injection, schedule: Q04DX003 (ip), vehicle: saline
[4] = dose: 100.0 mg/kg/injection, schedule: Q01DX001 (ip), vehicle: saline
[5] = dose: 200.0 mg/kg/injection, schedule: Q01DX001 (ip), vehicle: saline
[6] = dose: 400.0 mg/kg/injection, schedule: Q01DX001 (ip), vehicle: saline
[7] = dose: 100.0 mg/kg/injection, schedule: Q04DX003 (ip), vehicle: Klucel (hydroxypropylcellulose) (HPC)
[8] = dose: 200.0 mg/kg/injection, schedule: Q04DX003 (ip), vehicle: Klucel (hydroxypropylcellulose) (HPC)
[9] = dose: 400.0 mg/kg/injection, schedule: Q04DX003 (ip), vehicle: Klucel (hydroxypropylcellulose) (HPC)
[10] = dose: 100.0 mg/kg/injection, schedule: Q01DX009 (ip), vehicle: Klucel (hydroxypropylcellulose) (HPC)
[11] = dose: 200.0 mg/kg/injection, schedule: Q01DX009 (ip), vehicle: Klucel (hydroxypropylcellulose) (HPC)
[12] = dose: 400.0 mg/kg/injection, schedule: Q01DX009 (ip), vehicle: Klucel (hydroxypropylcellulose) (HPC)
[13] = dose: 12.5 mg/kg/injection, schedule: Q04DX003 (ip), vehicle: Klucel (hydroxypropylcellulose) (HPC)
[14] = dose: 25.0 mg/kg/injection, schedule: Q04DX003 (ip), vehicle: Klucel (hydroxypropylcellulose) (HPC)

Measured: T/C

COc1cc(C)c2cc(C)cc(C)c2n1
inactive: dose: 100.0 mg/kg/injection, schedule: Q01DX001 (ip), vehicle: other 95 % of control | dose: 200.0 mg/kg/injection, schedule: Q01DX001 (ip), vehicle: other 101 % of control | dose: 400.0 mg/kg/injection, schedule: Q01DX001 (ip), vehicle: other 93 % of control

N#Cc1cc(C(N)=O)c(N)nc1SCc1ccccc1
inactive: [1] 94 % of control | [2] 86 % of control | dose: 200.0 mg/kg/injection, schedule: Q01DX001 (ip), vehicle: Klucel (hydroxypropylcellulose) (HPC) 91 % of control

CC1([N+](=O)[O-])COP(=O)(NCCCN2CCOCC2)OC1 (stereo not drawn)
inactive: dose: 100.0 mg/kg/injection, schedule: Q01DX001 (ip), vehicle: carboxymethylcellulose (CMC) 97 % of control | dose: 200.0 mg/kg/injection, schedule: Q01DX001 (ip), vehicle: carboxymethylcellulose (CMC) 97 % of control | dose: 400.0 mg/kg/injection, schedule: Q01DX001 (ip), vehicle: carboxymethylcellulose (CMC) 97 % of control

CNC(C)Cc1ccccc1OC (stereo not drawn)
inactive: dose: 25.0 mg/kg/injection, schedule: Q04DX003 (ip), vehicle: saline 103 % of control | dose: 50.0 mg/kg/injection, schedule: Q04DX003 (ip), vehicle: saline 101 % of control | [3] 92 % of control

O=C(CCCC(=O)N/N=C/c1ccc2c(c1)OCO2)N/N=C\c1ccc2c(c1)OCO2
inactive: dose: 50.0 mg/kg/injection, schedule: Q01DX001 (ip), vehicle: saline 103 % of control | [4] 103 % of control | [5] 106 % of control | [6] 100 % of control

CCCCc1ccc(OCCBr)cc1
inactive: dose: 100.0 mg/kg/injection, schedule: Q01DX009 (ip), vehicle: saline sonified 102 % of control | [7] 95 % of control | dose: 200.0 mg/kg/injection, schedule: Q01DX009 (ip), vehicle: saline sonified 98 % of control | [8] 103 % of control | dose: 400.0 mg/kg/injection, schedule: Q01DX009 (ip), vehicle: saline sonified 95 % of control | [9] 101 % of control

CCOC(=O)C(C)(C(=O)OCC)c1cc(OC)c(C)cc1Br
inactive: dose: 50.0 mg/kg/injection, schedule: Q04DX003 (ip), vehicle: saline with Tween-80 100 % of control | dose: 100.0 mg/kg/injection, schedule: Q04DX003 (ip), vehicle: saline with Tween-80 103 % of control | dose: 200.0 mg/kg/injection, schedule: Q04DX003 (ip), vehicle: saline with Tween-80 100 % of control | dose: 400.0 mg/kg/injection, schedule: Q04DX003 (ip), vehicle: saline with Tween-80 97 % of control

Cc1cc(Cl)ccc1OC(=O)Nc1ccccc1F
inactive: [10] 110 % of control | [11] 98 % of control | [12] 121 % of control

CC(=O)NC1CC(CO)C(O)C1O (stereo not drawn)
inactive: [4] 107 % of control | [5] 90 % of control | [6] 101 % of control

CCOC(=O)C(C(=O)OCC)N1C(=O)c2ccccc2C1=O
inactive: [10] 100 % of control | [7] 106 % of control and 102 % of control | [11] 102 % of control | [8] 105 % of control and 104 % of control | [12] 102 % of control | [9] 101 % of control and 100 % of control

CCCCOc1ccc(/C=N\N=C\c2ccc(OCCCC)cc2)cc1
inactive: dose: 100.0 mg/kg/injection, schedule: Q01DX009 (ip), vehicle: saline with Tween-80 90 % of control | dose: 200.0 mg/kg/injection, schedule: Q01DX009 (ip), vehicle: saline with Tween-80 88 % of control

C=CCn1c2ccccc2c2cc3cnccc3c(C)c21
inactive: dose: 6.25 mg/kg/injection, schedule: Q04DX003 (ip), vehicle: Klucel (hydroxypropylcellulose) (HPC) 100 % of control | [13] 97 % of control | [14] 100 % of control | [7] 102 % of control | [8] 97 % of control | [9] 105 % of control

C=CCOC(=O)C1CC(C(=O)OCC=C)C(C(=O)OCC=C)C1C(=O)OCC=C (stereo not drawn)
inactive: [10] 100 % of control | [7] 91 % of control | [11] 92 % of control | [8] 100 % of control | [12] 92 % of control | [9] 96 % of control

CN(N=O)C(=O)NCC1OC(n2cnc3c(N)ncnc32)C(O)C1O (stereo not drawn)
inactive: dose: 9.0 mg/kg/injection, schedule: Q01DX001 (ip), vehicle: saline with Tween-80 95 % of control | dose: 13.0 mg/kg/injection, schedule: Q01DX001 (ip), vehicle: saline with Tween-80 98 % of control | dose: 26.0 mg/kg/injection, schedule: Q01DX001 (ip), vehicle: saline with Tween-80 96 % of control | dose: 40.0 mg/kg/injection, schedule: Q01DX001 (ip), vehicle: saline with Tween-80 96 % of control | dose: 60.0 mg/kg/injection, schedule: Q01DX001 (ip), vehicle: saline with Tween-80 98 % of control | dose: 90.0 mg/kg/injection, schedule: Q01DX001 (ip), vehicle: saline with Tween-80 103 % of control | dose: 133.0 mg/kg/injection, schedule: Q01DX001 (ip), vehicle: saline with Tween-80 101 % of control | dose: 200.0 mg/kg/injection, schedule: Q01DX001 (ip), vehicle: saline with Tween-80 106 % of control

COCCOCCOC(=O)C(CO)(CC(CO)(C(C)=O)C(=O)OCCOCCOC)C(C)=O (stereo not drawn)
inactive: dose: 222.0 mg/kg/injection, schedule: Q01DX Z (ip), vehicle: saline 92 % of control | dose: 333.0 mg/kg/injection, schedule: Q01DX Z (ip), vehicle: saline 102 % of control | dose: 500.0 mg/kg/injection, schedule: Q01DX Z (ip), vehicle: saline 107 % of control

O=C(O)CCCN1C/C(=C\c2ccc(Cl)cc2)C(=O)C1=O
inactive: [4] 97 % of control | [3] 98 % of control | [5] 102 % of control | dose: 200.0 mg/kg/injection, schedule: Q04DX003 (ip), vehicle: saline 98 % of control | [6] 107 % of control | dose: 400.0 mg/kg/injection, schedule: Q04DX003 (ip), vehicle: saline 96 % of control

CCCC1(CC)C(=O)NC(=S)N(C)C1=O (stereo not drawn)
inactive: dose: 75.0 mg/kg/injection, schedule: Q01DX001 (ip), vehicle: carboxymethylcellulose (CMC) 95 % of control | dose: 75.0 mg/kg/injection, schedule: Q01DX001 (ip), vehicle: other 94 % of control | dose: 150.0 mg/kg/injection, schedule: Q01DX001 (ip), vehicle: carboxymethylcellulose (CMC) 98 % of control | dose: 150.0 mg/kg/injection, schedule: Q01DX001 (ip), vehicle: other 111 % of control | dose: 300.0 mg/kg/injection, schedule: Q01DX001 (ip), vehicle: carboxymethylcellulose (CMC) 104 % of control

COc1nc(NNC(N)=S)ccc1[N+](=O)[O-]
inactive: [7] 91 % of control | [8] 93 % of control | [9] 93 % of control

C=CCc1cc(CNCCCOCC)c(O)c(OC)c1
inactive: [13] 97 % of control | [14] 95 % of control | dose: 50.0 mg/kg/injection, schedule: Q04DX003 (ip), vehicle: Klucel (hydroxypropylcellulose) (HPC) 92 % of control

O=C(OCc1ccccc1CN1CCCC1)c1ccccc1
inactive: dose: 25.0 mg/kg/injection, schedule: Q01DX001 (ip), vehicle: Klucel (hydroxypropylcellulose) (HPC) 98 % of control | [1] 95 % of control | [2] 98 % of control and 102 % of control
